No end group written: not given here.
Columns and labels:
Crohn's disease antibody [1] = experiment: Reaction inhibition test with one amino acid-substituted MAP peptides on CDP3 MAP plate (Example 6(2)); format: binding, human; details: inhibitor MAP peptide 100 μg/mL
Procedure: Referring to the amino acid sequence of CDP peptide, in order to determine the sequence necessary for the specific reactivity to Crohn's disease antibody, the following reaction inhibition test was performed using each of the one amino acid-substituted MAP peptides prepared as above as the reaction inhibitor.
More particularly, using the MAP plate prepared by immobilizing the MAP peptide of CDP3 (see Example 2(1)) as the antigen plate, the test was performed by 3 reaction steps. In the primary reaction, the Crohn's disease patient serum was diluted 100-fold with a sample diluent containing the one amino acid-substituted MAP peptide in a concentration of 100 μg/mL (0.1 M Tris-buffer containing 0.5 M sodium chloride, 1.5% casein, 2% normal goat serum and 0.2% Tween 20) and reacted at 25° C. for one hour. In the secondary reaction, 100 μL/well of the primary reaction mixture was added to the plate and reacted at 25° C. for one hour, after which the plate was washed 3 times. In the tertiary reaction, 100 μL/well of HRP-labeled anti-human IgG (Fc)-specific antibody diluted 5,000-fold in an enzyme-labeled antibody diluent (Tris buffer containing 0.14 M sodium chloride, 0.5% BAS, 5% normal goat serum and 0.05% Tween 20) was added to the plate, and reacted at 25° C. for 1 hour, followed by 3 rounds of washing. Detection was performed as in Example 2(1) to measure the reaction-inhibiting activity of the one amino acid-substituted MAP peptide.

[2] = system: Crohn's disease antibody (serum antibodies); experiment: MAP antigen-ELISA of Z300 peptide (Example 6(4)); format: binding, human
Procedure: Therefore, in order to confirm that human nuclear protein (HZF300) is a protein simulated or mimicked by CDP3 peptide, the peptide (Z300 peptide) having the amino acid sequence of the 126-138 amino acid region of HZF300 was prepared in the form of a MAP peptide and the MAP antigen ELISA was carried out using 20 Crohn's disease patient serum samples, 20 ulcerative colitis patient serum samples, and 20 healthy volunteer serum samples.
First, each human serum was diluted 101-fold with the sample diluent (described hereinbefore) and 100 μL/well of the solution was added to the MAP plate prepared by immobilizing the said MAP peptide. Then, the procedure of the secondary reaction and subsequent operation described in Example 6(2) was followed to investigate the reactivity of the MAP peptide to various kinds of serum antibodies.

[3] = system: Crohn's disease patient serum antibody; experiment: Phage ELISA of CD-binding peptide display phage clones with serum samples; set-up: species or system human; details: 20 Crohn's disease, 20 ulcerative colitis, 20 healthy volunteer serum samples
Procedure: Using the monoclonal CD-binding peptide display phage obtained as above, phage ELISA was carried out with the same healthy volunteer serum pool and Crohn's disease patient serum pool as used in the above biopanning (cf. (i)).
In the ELISA, an anti-phage antibody (Pharmacia) was immobilized on a 96-well microtiter plate in the first place. Specifically, this immobilization was carried out by adding an anti-phage antibody (Pharmacia) solution prepared in a 1 μg/ml concentration with (D)-PBS, to the plate, 100 μl per well. The plate was left sitting at 4° C. overnight and then washed, and after addition of 300 μl of blocking solution ((D)-PBS containing 1% BSA and 5% sorbitol), further left sitting at 4° C. overnight.
The primary reaction was carried out as follows. Thus, 10 μl of the phage solution in (ii) was added to 90 μl of phage ELISA buffer ((D)-PBS containing 1% BSA, 0.05% Tween 20 and 10% normal goat serum), the mixture was added to each well coated with said anti-phage antibody, and the reaction was conducted at 37° C. for 1 hour. After completion of the primary reaction, the plate was washed 4 times and the secondary reaction was carried out. The secondary reaction was performed by adding the mixture containing 1 μl of serum (healthy volunteer serum or Crohn's disease patient serum) and 100 μl of phage ELISA buffer, to each well, and allowing the reaction to proceed at 37° C. for 1 hour. After completion of the secondary reaction, the plate was washed 4 times and the tertiary reaction was carried out. The tertiary reaction was conducted by adding HRP (horseradish peroxidase)-labeled anti-human IgG (Fc)-specific antibody, diluted 40,000-fold in phage ELISA buffer (20 ng/ml) in advance, to the plate, 100 μl per well, and allowing the reaction to proceed at 37° C. for one hour. After completion of the tertiary reaction, the plate was washed and a color development reaction was carried out. The color development was conducted by adding TMB (3,3′,5,5′-tetramethylbenzidine) solution to the plate, allowing the reaction to proceed at room temperature for 10 minutes, and stopping the reaction with a stopper (1N sulfuric acid). The plate after reaction stopping was measured for absorbance (OD 450 nm) with a plate reader to evaluate the reactivity with the serum antibody.
For the 5 clones thus selected, the reactivity (ELISA) with the respective serum samples (Crohn's disease patient serum, ulcerative colitis patient serum, and healthy volunteer serum) was evaluated.

[4] = system: Crohn's disease antibody (serum IgG); experiment: MAP peptide ELISA of CDP-1a, CDP-5a and VATE-201 (Example 4); format: binding, human; details: 20 Crohn's disease, 20 ulcerative colitis, 20 healthy volunteer serum samples
Text: Therefore, the following peptides (CDP-1a peptide, CDP-5a peptide, VATE-201 peptide) were respectively synthesized in the MAP form (multiple antigenic peptides) by the same procedure as described in Example 1(3) (FIG. 9), and in accordance with the protocol of Example 2(1), the reactivity of each MAP peptide to various serum samples (Crohn's disease patient sera, ulcerative colitis patient sera and healthy volunteer sera) was investigated by ELISA.
As test sera, 20 Crohn's disease patient serum samples were used and, as control sera, 20 ulcerative colitis serum samples and 20 healthy volunteer serum samples were used.

[5] = system: Crohn's disease antibody (serum antibodies); experiment: MAP antigen-ELISA of TO3965 peptide (Example 7(4)); format: binding, human; details: for reactions with ulcerative colitis patient sera and healthy volunteer sera: 20 ulcerative colitis, 20 healthy volunteer serum samples
Procedure: At this junction, in order to endorse the assumption that rice allergen proteins are proteins simulated or mimicked by CDP4 peptide, a peptide (TO3965 peptide) having an amino acid sequence corresponding to the 99-111 amino acid region of Rice seed allergen RA14 (FIG. 16) was prepared in the form of a MAP peptide and the MAP antigen-ELISA was performed using 20 Crohn's disease patient serum samples, 20 ulcerative colitis patient serum samples, and 20 healthy volunteer serum samples.
Except that a MAP antigen plate prepared by immobilizing the MAP peptide of TO3965 on the plate was used as the antigen plate, the MAP antigen-ELISA was carried out in otherwise the same manner as in Example 6(4).

Crohn's disease antibody [6] = experiment: Test for inhibition of the antigen-antibody reaction between CDP-1a peptide and Crohn's disease antibody (Example 5); format: binding, human; details: sera No. 8, No. 9, No. 14; reaction inhibitor 100 μg/ml
Procedure: To confirm the reactivity of VATE-201 obtained in Example 4, a test for inhibition of the antigen-antibody reaction between CDP-1a peptide and Crohn's disease antibody was carried out using VATE-201 peptide.
More particularly, the MAP plate prepared by immobilizing CDP-1a MAP peptide was used as the antigen plate (see Example 2(1)). On the other hand, 1 μL of each serum sample was added to 100 μL of a casein solution ((D)-PBS containing 0.1% casein and 1% Triton X-100) containing the MAP peptide of VATE-201 (reaction inhibitor) at a concentration of 100 μg/ml and the reaction was carried out at 37° C. for one hour. The whole amount of the reaction mixture thus obtained was added to the above MAP plate and ELISA was performed in the same manner as in Example 2(1). As a comparative experiment, using the MAP peptide of CDP-1a in lieu of the MAP peptide of VATE-201 as said reaction inhibitor, ELISA was carried out in otherwise the same manner.

Crohn's disease antibody [7] = experiment: Test for inhibition of the antigen-antibody reaction between CDP4 peptide and Crohn's disease antibody using TO3965 peptide (Example 7(5)); format: binding, human; details: sera Nos. 3, 6, 15, 17 and 20
Procedure: To confirm the reactivity of TO3965 peptide to Crohn's disease antibody, a test for inhibition of the antigen-antibody reaction between CDP4 peptide and Crohn's disease antibody was performed using TO3965 peptide as a reaction inhibitor as in Example 6(5).

Crohn's disease antibody [8] = experiment: Test for inhibition of the antigen-antibody reaction between CDP3 peptide and Crohn's disease antibody using Z300 peptide (Example 6(5)); format: binding, human; details: sera No. 2, No. 7, No. 8; inhibitor 100 μg/ml
Procedure: To verify the reactivity of Z300 peptide to Crohn's disease antibodies, a test for inhibition of the antigen-antibody reaction between CDP3 peptide and Crohn's disease antibody was performed using Z300 peptide.
More particularly, the MAP plate prepared by immobilizing the MAP peptide of CDP3 on a plate (Example 2(1)) was used. To 100 μL of the sample diluent containing 100 μg/ml of Z300 MAP peptide (reaction inhibitor) was added 1 μL of the serum sample and the reaction was carried out at 25° C. for one hour. The whole amount of this reaction mixture was added to the plate and ELISA was performed in the same manner as in Example 6(2). As a comparative experiment, ELISA was similarly performed using the MAP peptide of CDP3, in lieu of the MAP peptide of Z300, as said reaction inhibitor.

[9] = target: Crohn's disease patient serum No. 2 (serum antibody); experiment: inhibition ELISA; serum pre-incubated with 100 ug/mL MAP peptide, then CDP3 MAP plate; grade of reaction-inhibiting activity
[10] = target: Crohn's disease patient serum No. 7 (serum antibody); experiment: as above
[11] = target: Crohn's disease patient serum No. 8 (serum antibody); experiment: as above

## A E G E L R Q S D G Q Y Q M (AEGELRQSDGQYQM) [CDP3]
Crohn's disease antibody [1]
  reaction-inhibiting activity, Patient serum sample No. 2: +++ (+++: reaction-inhibiting activity = 70%)
  reaction-inhibiting activity, Patient serum sample No. 7: +++ (+++: reaction-inhibiting activity = 70%)
  reaction-inhibiting activity, Patient serum sample No. 8: +++ (+++: reaction-inhibiting activity = 70%)
[2]; Crohn's disease patient serum No. 2, No. 7 and No. 8
  reactivity of Crohn's disease patient sera to the peptide: strong reactivity

## AEGEL RQSDGQYQM GDPA [CD-3]
[3]
  specificity to Crohn's disease patient serum (phage ELISA reactivity): high specificity to Crohn's disease patient serum

## AEGEL YRWLPPSSA GDPA [CD-2]
[3]
  specificity to Crohn's disease patient serum (phage ELISA reactivity): high specificity to Crohn's disease patient serum

## AEGELGLLAQQMDYADP [CDP-1a]
[4]
  ELISA reactivity to serum samples: ELISA reactivities mutually alike

## AEGELRLVGQQVMQGDP [CDP-5a]
[4]
  ELISA reactivity to serum samples: ELISA reactivities mutually alike

## CDP4: equivalent of CD4 peptide, SEQ ID NO:34 (AEGELGGIYQDLVS; Phage Library)
[5]
  reactions with ulcerative colitis patient sera and healthy volunteer sera: did not show definite reactions
[5]; Crohn's disease patient serum Nos. 3, 6, 15, 17 and 20
  reactivity of Crohn's disease patient sera to the peptide: strong reactivity

## RLDLIAQQMMPEVR [VATE-201]
Crohn's disease antibody [6]
  inhibition of the reactivity of Crohn's disease serum samples with the CDP-1a MAP plate: invariably inhibited the reactivity
[4]
  ELISA reactivity to serum samples: ELISA reactivities mutually alike

## TO3965: peptide with the amino acid sequence of the 99-111 amino acid region of Rice seed allergen RA14, SEQ ID NO:42 (HMVGGIYRELGAT; Rice; Rice Seel Allergen RA14)
[5]
  reactions with ulcerative colitis patient sera and healthy volunteer sera: did not show definite reactions
Crohn's disease antibody [7]
  inhibition of the reactivity of Crohn's disease patient serum samples to the CDP4 MAP plate: inhibition everything of the reactivity

## Z300: peptide having the amino acid sequence of the 126-138 amino acid region of HZF300, SEQ ID NO:31 (LVCQGDGQLQRFL; Kruppel-like Zinc Finger Protein 300; listed as Homo sapiens)
Crohn's disease antibody [8]
  inhibition of the reactivity of Crohn's disease patient sera to the CDP3 MAP plate: inhibited the reactivity of all Crohn's disease patient sera
[2]; 20 ulcerative colitis, 20 healthy volunteer serum samples
  reactions with ulcerative colitis patient sera and healthy volunteer sera: did not show definite reactions

## AEGELRQSDAQYQM (also: MAP: 8 copies as branches on a lysine core) [MAP peptide of CDP3-10]
[9]
  reaction-inhibiting activity: 30 to 50%

## AEGELRQSAGQYQM (also: MAP: 8 copies as branches on a lysine core) [MAP peptide of CDP3-9]
[10]
  reaction-inhibiting activity: 30 to 50%

## AEGELRQSDGQYAM (also: MAP: 8 copies as branches on a lysine core) [MAP peptide of CDP3-13]
[9]
  reaction-inhibiting activity: 30 to 50%
[11]
  reaction-inhibiting activity: 50 to 70%

## AEGELRQSDGAYQM (also: MAP: 8 copies as branches on a lysine core) [MAP peptide of CDP3-11]
[10]
  reaction-inhibiting activity: 30 to 50%

— patent publication US20040175763A1, “Crohn's disease antibody-binding peptide and method of examining crohn's disease” (priority 2001, published 2004)
